Measurements published in publication PMC6478789, “A chemical toolbox for the study of bromodomains and epigenetic signaling” (Nature Communications, 2019).
Read-outs that look alike come from different tables or passages of the source.

How the values were obtained:
ASH1L = target: T1, ASH1L (Homo sapiens, UniProt Q9NR48); assay: Methyl transferase scintillation proximity assay; assay type: biochemical; settings: average of two measurements; for inhibition at 10 µM: read-out: MTases Inhibition (%)
T1 construct: purchased DiscoverX BROMOscan (bromodomains); SGC in-house methyltransferase panel
Experimental: (§1) Assays measuring lysine and arginine methyl transferase activity have been described in Scheer et al.. A radioactivity-based scintillation proximity assay was used to monitor incorporation of a tritium-labeled methyl group into the biotinylated substrate of the methyl transferase. A 10-μl reaction containing ^3H-SAM and substrate at concentrations close to the apparent Km values for each enzyme was prepared. The reactions were quenched with 10 μl of 7.5 M guanidine hydrochloride; 180 μl of 20 mM Tris buffer (pH 8.0) were added; and the mixture was transferred to a 96-well FlashPlate and incubated for 1 h. The counts per minute (CPM) was measured on a TopCount plate reader. The CPM in the absence of compound or enzyme was defined as 100% activity and background (0%), respectively, for each dataset.

DNMT1 = target: T2, DNMT1 (Homo sapiens, UniProt P26358); assay: Methyl transferase scintillation proximity assay; assay type: biochemical; settings: average of two measurements; for inhibition at 10 µM: read-out: MTases Inhibition (%)
T2 construct: purchased DiscoverX BROMOscan (bromodomains); SGC in-house methyltransferase panel
Experimental: as §1

DNMT3A/3L = target: T3, DNMT3A/3L (Homo sapiens, UniProt Q9Y6K1); assay: Methyl transferase scintillation proximity assay; assay type: biochemical; settings: average of two measurements; for inhibition at 10 µM: read-out: MTases Inhibition (%)
T3 construct: purchased DiscoverX BROMOscan (bromodomains); SGC in-house methyltransferase panel
Experimental: as §1

DNMT3B/3L = target: T4, DNMT3B/3L (Homo sapiens, UniProt Q9UBC3); assay: Methyl transferase scintillation proximity assay; assay type: biochemical; settings: average of two measurements; for inhibition at 10 µM: read-out: MTases Inhibition (%)
T4 construct: purchased DiscoverX BROMOscan (bromodomains); SGC in-house methyltransferase panel
Experimental: as §1

DOT1L = target: T5, DOT1L (Homo sapiens, UniProt Q8TEK3); assay: Methyl transferase scintillation proximity assay; assay type: biochemical; settings: average of two measurements; for inhibition at 10 µM: read-out: MTases Inhibition (%)
T5 construct: purchased DiscoverX BROMOscan (bromodomains); SGC in-house methyltransferase panel
Experimental: as §1

MLL1 (Trimeric) = target: T6, MLL1 (Trimeric) (Homo sapiens, UniProt Q03164); assay: Methyl transferase scintillation proximity assay; assay type: biochemical; settings: average of two measurements; for inhibition at 10 µM: read-out: MTases Inhibition (%)
T6 construct: purchased DiscoverX BROMOscan (bromodomains); SGC in-house methyltransferase panel
Experimental: as §1

MLL3 (pentameric) = target: T7, MLL3 (pentameric) (Homo sapiens, UniProt Q8NEZ4); assay: Methyl transferase scintillation proximity assay; assay type: biochemical; settings: average of two measurements; for inhibition at 10 µM: read-out: MTases Inhibition (%)
T7 construct: purchased DiscoverX BROMOscan (bromodomains); SGC in-house methyltransferase panel
Experimental: as §1

PRDM9 = target: T8, PRDM9 (Homo sapiens, UniProt Q9NQV7); assay: Methyl transferase scintillation proximity assay; assay type: biochemical; settings: average of two measurements; for inhibition at 10 µM: read-out: MTases Inhibition (%)
T8 construct: purchased DiscoverX BROMOscan (bromodomains); SGC in-house methyltransferase panel
Experimental: as §1

PRMT3 = target: T9, PRMT3 (Homo sapiens, UniProt O60678); assay: Methyl transferase scintillation proximity assay; assay type: biochemical; settings: average of two measurements; for inhibition at 10 µM: read-out: MTases Inhibition (%)
T9 construct: purchased DiscoverX BROMOscan (bromodomains); SGC in-house methyltransferase panel
Experimental: as §1

PRMT8 = target: T10, PRMT8 (Homo sapiens, UniProt Q9NR22); assay: Methyl transferase scintillation proximity assay; assay type: biochemical; settings: average of two measurements; for inhibition at 10 µM: read-out: MTases Inhibition (%)
T10 construct: purchased DiscoverX BROMOscan (bromodomains); SGC in-house methyltransferase panel
Experimental: as §1

SETD8 = target: T11, SETD8 (Homo sapiens, UniProt Q9NQR1); assay: Methyl transferase scintillation proximity assay; assay type: biochemical; settings: average of two measurements; for inhibition at 10 µM: read-out: MTases Inhibition (%)
T11 construct: purchased DiscoverX BROMOscan (bromodomains); SGC in-house methyltransferase panel
T11 sequence (Q9NQR1 1-393): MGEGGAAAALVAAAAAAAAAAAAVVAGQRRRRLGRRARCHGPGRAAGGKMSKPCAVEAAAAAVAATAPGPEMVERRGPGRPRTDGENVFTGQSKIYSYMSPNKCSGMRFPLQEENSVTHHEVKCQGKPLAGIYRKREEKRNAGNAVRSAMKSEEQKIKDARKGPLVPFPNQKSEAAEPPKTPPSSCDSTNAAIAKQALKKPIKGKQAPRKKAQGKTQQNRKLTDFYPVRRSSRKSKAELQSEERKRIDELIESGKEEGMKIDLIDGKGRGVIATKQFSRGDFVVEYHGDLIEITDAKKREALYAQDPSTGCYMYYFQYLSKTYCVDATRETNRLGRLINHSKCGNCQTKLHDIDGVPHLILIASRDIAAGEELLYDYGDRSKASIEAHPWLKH
Experimental: as §1

SETDB1 = target: T12, SETDB1 (Homo sapiens, UniProt Q15047); assay: Methyl transferase scintillation proximity assay; assay type: biochemical; settings: average of two measurements; for inhibition at 10 µM: read-out: MTases Inhibition (%)
T12 construct: purchased DiscoverX BROMOscan (bromodomains); SGC in-house methyltransferase panel
Experimental: as §1

SUV39H1 = target: T13, SUV39H1 (Homo sapiens, UniProt O43463); assay: Methyl transferase scintillation proximity assay; assay type: biochemical; settings: average of two measurements; for inhibition at 10 µM: read-out: MTases Inhibition (%)
T13 construct: purchased DiscoverX BROMOscan (bromodomains); SGC in-house methyltransferase panel
T13 sequence (O43463 1-412): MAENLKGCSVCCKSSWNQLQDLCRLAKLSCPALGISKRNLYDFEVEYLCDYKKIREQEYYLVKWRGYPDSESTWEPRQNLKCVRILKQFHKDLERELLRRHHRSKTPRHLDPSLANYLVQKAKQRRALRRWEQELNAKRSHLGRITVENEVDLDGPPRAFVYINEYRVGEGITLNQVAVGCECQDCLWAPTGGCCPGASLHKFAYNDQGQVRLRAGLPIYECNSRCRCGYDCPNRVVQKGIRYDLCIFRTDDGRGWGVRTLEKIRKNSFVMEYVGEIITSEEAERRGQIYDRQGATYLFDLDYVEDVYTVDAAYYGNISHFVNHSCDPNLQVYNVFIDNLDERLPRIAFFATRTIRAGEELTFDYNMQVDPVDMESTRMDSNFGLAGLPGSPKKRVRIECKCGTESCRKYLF
Experimental: as §1

SUV39H2 = target: T14, SUV39H2 (Homo sapiens, UniProt Q9H5I1); assay: Methyl transferase scintillation proximity assay; assay type: biochemical; settings: average of two measurements; for inhibition at 10 µM: read-out: MTases Inhibition (%)
T14 construct: purchased DiscoverX BROMOscan (bromodomains); SGC in-house methyltransferase panel
Experimental: as §1

SUV420H1 = target: T15, SUV420H1 (Homo sapiens, UniProt Q4FZB7); assay: Methyl transferase scintillation proximity assay; assay type: biochemical; settings: average of two measurements; for inhibition at 10 µM: read-out: MTases Inhibition (%)
T15 construct: purchased DiscoverX BROMOscan (bromodomains); SGC in-house methyltransferase panel
Experimental: as §1

SUV420H2 = target: T16, SUV420H2 (Homo sapiens, UniProt Q86Y97); assay: Methyl transferase scintillation proximity assay; assay type: biochemical; settings: average of two measurements; for inhibition at 10 µM: read-out: MTases Inhibition (%)
T16 construct: purchased DiscoverX BROMOscan (bromodomains); SGC in-house methyltransferase panel
Experimental: as §1

ATAD2A = target: T17, ATAD2A (Homo sapiens, UniProt Q6PL18); assay: BROMOscan ligand-binding assay
T17 sequence (Q6PL18 980-1092 limits assumed): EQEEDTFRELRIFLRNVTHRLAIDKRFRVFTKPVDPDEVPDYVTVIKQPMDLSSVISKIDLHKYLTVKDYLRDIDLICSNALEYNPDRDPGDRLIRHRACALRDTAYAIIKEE
Excerpt: (§2) BROMOscan is a binding assay based on the well-known KINOMEscan technology. This assay measures the binding of a DNA-tagged bromodomain to an immobilized BRD ligand. If an inhibitor is present, it will compete with the bromodomain binding to the immobilized ligand, resulting in reduction of a quantitative PCR (qPCR) signal in a dose-dependent manner.

BRD2(1) = BRD2(1) (Homo sapiens, UniProt P25440); assay: BROMOscan ligand-binding assay
Excerpt: as §2

WDR9(2) = WDR9(2) (Homo sapiens, UniProt Q9NSI6); assay: BROMOscan ligand-binding assay
Excerpt: as §2

[1] = KD (BROMOscan), sheet prints no unit (nM)
[2] = KD, BROMOscan Gene Symbol ATAD2A

T2 sequence (P26358 whole entry): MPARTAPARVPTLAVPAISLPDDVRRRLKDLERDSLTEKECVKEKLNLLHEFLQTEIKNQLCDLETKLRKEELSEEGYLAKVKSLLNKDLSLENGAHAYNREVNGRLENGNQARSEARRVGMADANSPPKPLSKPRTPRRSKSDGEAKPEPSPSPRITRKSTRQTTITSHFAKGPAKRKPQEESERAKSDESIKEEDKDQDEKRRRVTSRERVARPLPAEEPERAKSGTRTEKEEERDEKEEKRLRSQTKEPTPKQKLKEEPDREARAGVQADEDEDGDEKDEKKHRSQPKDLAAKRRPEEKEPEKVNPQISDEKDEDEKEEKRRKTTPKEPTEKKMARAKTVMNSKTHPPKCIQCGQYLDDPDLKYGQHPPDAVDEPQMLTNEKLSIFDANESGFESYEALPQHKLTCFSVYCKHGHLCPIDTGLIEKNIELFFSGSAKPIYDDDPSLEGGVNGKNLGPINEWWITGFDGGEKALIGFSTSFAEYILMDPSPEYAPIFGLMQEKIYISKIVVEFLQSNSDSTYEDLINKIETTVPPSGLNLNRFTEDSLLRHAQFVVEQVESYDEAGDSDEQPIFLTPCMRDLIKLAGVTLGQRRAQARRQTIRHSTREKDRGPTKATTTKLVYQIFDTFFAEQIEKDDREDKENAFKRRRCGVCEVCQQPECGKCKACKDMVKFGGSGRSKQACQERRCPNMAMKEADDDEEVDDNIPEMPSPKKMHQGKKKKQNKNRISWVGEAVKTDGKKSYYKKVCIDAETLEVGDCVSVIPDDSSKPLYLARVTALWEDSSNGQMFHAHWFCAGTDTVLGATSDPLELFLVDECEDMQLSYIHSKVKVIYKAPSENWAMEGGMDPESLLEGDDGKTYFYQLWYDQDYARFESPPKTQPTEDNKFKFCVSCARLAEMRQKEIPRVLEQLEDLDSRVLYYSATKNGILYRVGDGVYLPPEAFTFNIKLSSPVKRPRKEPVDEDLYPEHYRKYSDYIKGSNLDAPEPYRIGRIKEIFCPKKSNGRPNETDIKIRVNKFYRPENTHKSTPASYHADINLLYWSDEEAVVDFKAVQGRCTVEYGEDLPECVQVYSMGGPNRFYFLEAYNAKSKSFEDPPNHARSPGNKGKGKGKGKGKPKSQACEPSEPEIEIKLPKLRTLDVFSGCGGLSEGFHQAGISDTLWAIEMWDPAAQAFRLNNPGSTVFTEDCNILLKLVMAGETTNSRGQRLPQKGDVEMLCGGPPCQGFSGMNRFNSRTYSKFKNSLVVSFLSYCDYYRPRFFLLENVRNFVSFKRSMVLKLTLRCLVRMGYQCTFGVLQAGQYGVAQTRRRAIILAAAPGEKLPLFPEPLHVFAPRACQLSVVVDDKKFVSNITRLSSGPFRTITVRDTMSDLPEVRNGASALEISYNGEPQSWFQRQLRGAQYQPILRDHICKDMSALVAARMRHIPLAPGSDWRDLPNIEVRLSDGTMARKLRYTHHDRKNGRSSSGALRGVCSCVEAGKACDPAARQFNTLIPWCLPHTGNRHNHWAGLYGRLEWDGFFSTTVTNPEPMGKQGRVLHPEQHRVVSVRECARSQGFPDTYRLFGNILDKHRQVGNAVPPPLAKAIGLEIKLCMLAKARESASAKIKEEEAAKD
Sequence of WDR9(2) (Q9NSI6 1313-1418 limits assumed): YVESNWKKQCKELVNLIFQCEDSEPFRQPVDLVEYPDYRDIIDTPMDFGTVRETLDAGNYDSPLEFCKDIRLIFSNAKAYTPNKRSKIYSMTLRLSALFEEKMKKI
T15 sequence (Q4FZB7 whole entry): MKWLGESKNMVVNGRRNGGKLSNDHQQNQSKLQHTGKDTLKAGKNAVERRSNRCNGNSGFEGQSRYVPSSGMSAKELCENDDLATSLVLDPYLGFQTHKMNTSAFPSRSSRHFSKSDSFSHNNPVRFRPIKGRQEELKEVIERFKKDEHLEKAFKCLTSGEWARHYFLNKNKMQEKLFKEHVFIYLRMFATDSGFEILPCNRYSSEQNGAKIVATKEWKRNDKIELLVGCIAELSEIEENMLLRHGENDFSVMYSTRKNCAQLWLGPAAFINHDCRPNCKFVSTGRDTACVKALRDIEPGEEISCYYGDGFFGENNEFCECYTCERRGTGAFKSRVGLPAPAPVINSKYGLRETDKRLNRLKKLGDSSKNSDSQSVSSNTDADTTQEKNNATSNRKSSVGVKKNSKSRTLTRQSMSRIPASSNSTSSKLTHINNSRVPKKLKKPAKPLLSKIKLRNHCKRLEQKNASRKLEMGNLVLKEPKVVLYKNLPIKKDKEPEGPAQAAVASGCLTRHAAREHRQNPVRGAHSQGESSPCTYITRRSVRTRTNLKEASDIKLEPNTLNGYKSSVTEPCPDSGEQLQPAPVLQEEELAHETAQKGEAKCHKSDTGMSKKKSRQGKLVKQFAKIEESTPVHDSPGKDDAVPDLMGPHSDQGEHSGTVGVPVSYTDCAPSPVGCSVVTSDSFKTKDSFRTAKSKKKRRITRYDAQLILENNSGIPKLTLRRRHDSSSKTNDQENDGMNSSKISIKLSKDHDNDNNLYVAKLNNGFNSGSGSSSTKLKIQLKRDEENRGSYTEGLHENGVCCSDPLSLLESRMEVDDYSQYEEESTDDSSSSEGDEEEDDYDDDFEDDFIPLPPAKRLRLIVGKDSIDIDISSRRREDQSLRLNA
T16 sequence (Q86Y97 whole entry): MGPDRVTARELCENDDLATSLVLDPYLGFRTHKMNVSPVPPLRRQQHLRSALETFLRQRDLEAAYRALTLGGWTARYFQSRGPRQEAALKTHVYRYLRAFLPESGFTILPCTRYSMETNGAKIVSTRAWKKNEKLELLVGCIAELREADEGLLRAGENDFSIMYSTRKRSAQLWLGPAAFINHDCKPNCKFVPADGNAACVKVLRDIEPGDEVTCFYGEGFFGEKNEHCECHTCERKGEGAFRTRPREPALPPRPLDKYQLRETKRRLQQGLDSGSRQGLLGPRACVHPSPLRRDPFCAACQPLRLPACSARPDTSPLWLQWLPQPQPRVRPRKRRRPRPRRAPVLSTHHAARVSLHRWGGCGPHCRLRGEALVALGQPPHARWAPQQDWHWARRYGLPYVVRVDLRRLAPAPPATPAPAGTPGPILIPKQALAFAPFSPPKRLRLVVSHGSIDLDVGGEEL
T8 sequence (Q9NQV7 whole entry): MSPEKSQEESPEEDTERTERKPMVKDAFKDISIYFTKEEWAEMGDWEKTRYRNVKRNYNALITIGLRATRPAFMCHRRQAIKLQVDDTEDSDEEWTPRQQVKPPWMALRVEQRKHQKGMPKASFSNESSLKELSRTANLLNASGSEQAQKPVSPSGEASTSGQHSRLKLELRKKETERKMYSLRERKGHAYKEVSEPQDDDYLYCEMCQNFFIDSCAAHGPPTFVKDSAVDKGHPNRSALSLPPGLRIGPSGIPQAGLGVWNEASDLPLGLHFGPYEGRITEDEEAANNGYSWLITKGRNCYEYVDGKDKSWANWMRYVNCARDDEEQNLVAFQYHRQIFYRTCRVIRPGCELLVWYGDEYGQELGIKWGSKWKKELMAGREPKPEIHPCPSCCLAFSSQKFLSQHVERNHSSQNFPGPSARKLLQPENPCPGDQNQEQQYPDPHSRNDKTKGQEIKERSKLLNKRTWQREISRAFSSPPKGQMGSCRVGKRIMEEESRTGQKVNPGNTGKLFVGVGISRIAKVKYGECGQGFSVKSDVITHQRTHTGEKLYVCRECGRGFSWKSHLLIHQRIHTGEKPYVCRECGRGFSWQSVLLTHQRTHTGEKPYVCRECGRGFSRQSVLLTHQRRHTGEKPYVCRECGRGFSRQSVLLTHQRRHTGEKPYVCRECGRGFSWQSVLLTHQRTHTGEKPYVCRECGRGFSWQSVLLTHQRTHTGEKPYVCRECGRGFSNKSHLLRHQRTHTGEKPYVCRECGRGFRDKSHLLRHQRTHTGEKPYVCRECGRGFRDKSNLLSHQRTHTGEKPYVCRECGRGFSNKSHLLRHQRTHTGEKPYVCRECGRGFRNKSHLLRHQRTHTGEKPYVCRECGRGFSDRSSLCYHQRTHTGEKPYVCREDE
Sequence of BRD2(1) (P25440 74-180 limits assumed): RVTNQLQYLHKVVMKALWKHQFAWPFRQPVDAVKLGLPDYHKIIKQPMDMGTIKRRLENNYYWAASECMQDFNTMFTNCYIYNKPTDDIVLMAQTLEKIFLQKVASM
T10 sequence (Q9NR22 whole entry): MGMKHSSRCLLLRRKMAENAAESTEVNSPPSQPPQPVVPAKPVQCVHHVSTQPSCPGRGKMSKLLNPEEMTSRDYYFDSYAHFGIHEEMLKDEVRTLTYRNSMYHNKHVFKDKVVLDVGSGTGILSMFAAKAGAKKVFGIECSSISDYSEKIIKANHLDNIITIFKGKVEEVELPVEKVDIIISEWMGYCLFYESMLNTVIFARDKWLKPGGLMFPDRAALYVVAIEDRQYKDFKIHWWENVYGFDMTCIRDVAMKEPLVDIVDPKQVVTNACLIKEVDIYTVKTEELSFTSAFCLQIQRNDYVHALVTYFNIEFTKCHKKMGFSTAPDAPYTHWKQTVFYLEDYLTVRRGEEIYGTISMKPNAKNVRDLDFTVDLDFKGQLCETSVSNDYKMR
T14 sequence (Q9H5I1 whole entry): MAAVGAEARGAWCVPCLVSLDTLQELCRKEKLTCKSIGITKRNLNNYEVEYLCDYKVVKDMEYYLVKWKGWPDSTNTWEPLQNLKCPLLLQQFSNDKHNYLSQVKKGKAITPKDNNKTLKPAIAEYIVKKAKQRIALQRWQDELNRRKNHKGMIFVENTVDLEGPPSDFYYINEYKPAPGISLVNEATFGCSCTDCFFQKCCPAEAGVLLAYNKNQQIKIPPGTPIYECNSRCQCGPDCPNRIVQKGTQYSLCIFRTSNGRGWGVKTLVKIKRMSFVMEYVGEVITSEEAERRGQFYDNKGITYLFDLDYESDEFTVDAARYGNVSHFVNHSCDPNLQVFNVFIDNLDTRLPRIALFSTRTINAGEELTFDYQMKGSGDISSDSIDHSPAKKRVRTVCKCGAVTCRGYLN

SMILES	inhibition at 10 µM (ASH1L)	inhibition at 10 µM (DNMT1)	inhibition at 10 µM (DNMT3A/3L)	inhibition at 10 µM (DNMT3B/3L)	inhibition at 10 µM (DOT1L)	inhibition at 10 µM (MLL1 (Trimeric))	inhibition at 10 µM (MLL3 (pentameric))	inhibition at 10 µM (PRDM9)	inhibition at 10 µM (PRMT3)	inhibition at 10 µM (PRMT8)	inhibition at 10 µM (SETD8)	inhibition at 10 µM (SETDB1)	inhibition at 10 µM (SUV39H1)	inhibition at 10 µM (SUV39H2)	inhibition at 10 µM (SUV420H1)	inhibition at 10 µM (SUV420H2)	other results
Cc1c(NC(=O)c2cc(C(N)=O)nc3cc(F)ccc23)c(C(F)(F)F)nn1Cc1ccc(C(C)(C)C)cc1 [BAY-588]	-6%	9%	-1%	-6%	3%	7%	7%	3%	5%	3%	-3%	5%	12%	12%	-5%	-3%	–
COc1cc(Cl)c(C(=O)N[C@@H](CN[C@H]2CC[C@@H](N)CC2)Cc2ccc(C#N)cc2)cc1-c1ccc(CN[C@H](C)c2ccc(C)cc2)o1 [BAY-850]	3%	4%	21%	28%	3%	-1%	0%	10%	3%	4%	2%	8%	5%	-2%	5%	0%	–
Cc1c(NC(=O)c2cc(C(N)=O)nc3cc(F)ccc23)c(C(F)(F)F)nn1Cc1ccc(C#N)cc1 [BAY-876]	4%	4%	6%	1%	-6%	11%	0%	0%	1%	9%	0%	-4%	16%	-2%	-1%	-1%	–
Cc1noc(C)c1-c1ccc2c(c1)nc(CCc1ccccc1)n2CCN1CCOCC1 [CBP30-298]	–	–	–	–	–	–	–	–	–	–	–	–	–	–	–	–	Kd (ATAD2A; BROMOscan Gene Symbol ATAD2A): > 150000 nM; Kd (ATAD2A; read-out: KD (BROMOscan), sheet prints no unit (nM)): > 30000 nM; Kd (BRD2(1); BROMOscan Gene Symbol BRD2(1)): 0.78 µM; Kd (WDR9(2); BROMOscan Gene Symbol WDR9(2)): 30000 nM
CCCOc1ccn2c(C(C)=O)cc(-c3ccccc3S(C)(=O)=O)c2c1 [GSK2801]	–	–	–	–	–	–	–	–	–	–	–	–	–	–	–	–	Kd (ATAD2A; [1]): > 30000 nM; Kd (ATAD2A; [2]): > 100000 nM; Kd (BRD2(1)): 41 µM; Kd (WDR9(2); [1]): > 30000 nM; Kd (WDR9(2); KD, BROMOscan Gene Symbol WDR9(2)): > 100000 nM
CN1C[C@H](Nc2cnn(C)c(=O)c2Br)C[C@H](c2ccccc2)C1 [GSK4027]	13%	3%	3%	1%	-2%	8%	2%	3%	2%	15%	10%	-1%	-3%	5%	8%	-1%	–
COc1ccccc1C(=O)Nc1cc2c(cc1N1CCNC[C@H]1C)n(C)c(=O)n2C [GSK6853]	–	–	–	–	–	–	–	–	–	–	–	–	–	–	–	–	MTases Inhibition (%) (ASH1L; 10µM): 4%; MTases Inhibition (%) (DNMT1; 10µM): -8%; MTases Inhibition (%) (DNMT3A/3L; 10µM): 13%; MTases Inhibition (%) (DNMT3B/3L; 10µM): 8%; MTases Inhibition (%) (DOT1L; 10µM): 10%; MTases Inhibition (%) (MLL1 (Trimeric); 10µM): 7%; MTases Inhibition (%) (MLL3 (pentameric); 10µM): 2%; MTases Inhibition (%) (PRDM9; 10µM): -2%; MTases Inhibition (%) (PRMT3; 10µM): 1%; MTases Inhibition (%) (PRMT8; 10µM): 3%; MTases Inhibition (%) (SETD8; 10µM): -6%; MTases Inhibition (%) (SETDB1; 10µM): 1%; MTases Inhibition (%) (SUV39H1; 10µM): -3%; MTases Inhibition (%) (SUV39H2; 10µM): 1%; MTases Inhibition (%) (SUV420H1; 10µM): 5%; MTases Inhibition (%) (SUV420H2; 10µM): -2%
CO[C@H]1CNC[C@@H](OCC2CCC(F)(F)CC2)[C@@H]1Nc1ncc(-c2cncc(C)c2)c2cc(C)c(=O)[nH]c12 [GSK8814]	2%	-3%	8%	18%	5%	6%	0%	0%	3%	5%	-7%	1%	-2%	3%	-3%	0%	–
CCC(=O)N1CCOc2c(cc(-c3ccc(OC)c(OC)c3)cc2OCC2CCCN(C)C2)C1 (stereo not shown) [I-CBP112]	–	–	–	–	–	–	–	–	–	–	–	–	–	–	–	–	Kd (ATAD2A; [1]): > 30000 nM; Kd (ATAD2A; [2]): > 100000 nM; Kd (BRD2(1)): 5.7 µM; Kd (WDR9(2); KD, WDR9(2)): 59000 nM
